Data taken from ChEMBL document CHEMBL1142687, “New approaches toward anti-HIV chemotherapy” (J Med Chem, 2005).
Converted amounts (≈) assume the structure as drawn. One block for each molecule: values may come before it.

Columns and labels:
[1] = test system: Human immunodeficiency virus 1; experiment: (§1) Effective concentration to inhibit the replication of HIV-1 R5 strain; type: functional
[2] = Oral bioavailability in fasted rats; type: ADME, organism-based; details: rat, in vivo, read-out: Bioavailabiility
[3] = Oral bioavailability in monkeys; type: ADME, organism-based; details: cercopithecidae, in vivo, read-out: Bioavailabiility
[4] = test system: Human immunodeficiency virus 1; experiment: as §1; type: functional, organism-based
[5] = biological target: C-C chemokine receptor type 5 (Homo sapiens) (UniProt P51681)
Description: Inhibitory concentration against human immunodeficiency virus isolates utilizing C-C chemokine receptor type 5 for cell entry

Cell line [6] = experiment: Mean decrease in viral load in humans after administration of 100 mg twice a day; expressed as log10 reduction; type: functional, Homo sapiens
Cell line [7] = experiment: Mean decrease in viral load in humans after administration of 25 mg once a day; expressed as log 10 reduction; type: functional, Homo sapiens
Cell line [8] = experiment: Reduction of viral load after oral administration at 100 mg for 8 weeks; expressed as log10 reduction; type: functional, Homo sapiens
[9] = Inhibitory concentration to inhibit cell to cell fusion based on C14 linkmid (a short constrained peptide); type: functional
[10] = test system: Human immunodeficiency virus 1; experiment: Inhibitory concentration to inhibit HIV-1 mediated cell to cell fusion; type: functional, organism-based
[11] = test system: Human immunodeficiency virus 1; experiment: Effective concentration of the compound against human immunodeficiency virus type 1; type: functional, organism-based
[12] = test system: Human immunodeficiency virus 1; experiment: Selectivity index against human immunodeficiency virus type 1; type: functional
[13] = test system: Human immunodeficiency virus 1; experiment: Effective concentration of the compound to inhibit human immunodeficiency virus type 1 replication; type: functional, organism-based
[14] = test system: Human immunodeficiency virus 1; experiment: Cytotoxic concentration of the compound to inhibit HIV 1 replication; type: functional
Cell line [15] = experiment: Reduction of viral load after administration at 25 mg, twice daily for 10 days with antiretrovirals; expressed as log10 reduction; (0.5-1 ); type: functional, Homo sapiens
[16] = test system: Human immunodeficiency virus 1; experiment: Fold reduction in plasma HIV RNAafter intravenous administration of 100 mg twice daily (1.5-2.0); type: functional
[17] = test system: Human immunodeficiency virus 1; experiment: Effective concentration against human immunodeficiency virus type 1 strains; (0.3-0.5 nM); type: functional, organism-based
[18] = test system: Human immunodeficiency virus 1; experiment: Effective concentration of the compound to inhibit the replication of human immunodeficiency virus type 1; type: functional, organism-based

C-C chemokine receptor type 5 (Homo sapiens), sequence (P51681 whole entry, looked up): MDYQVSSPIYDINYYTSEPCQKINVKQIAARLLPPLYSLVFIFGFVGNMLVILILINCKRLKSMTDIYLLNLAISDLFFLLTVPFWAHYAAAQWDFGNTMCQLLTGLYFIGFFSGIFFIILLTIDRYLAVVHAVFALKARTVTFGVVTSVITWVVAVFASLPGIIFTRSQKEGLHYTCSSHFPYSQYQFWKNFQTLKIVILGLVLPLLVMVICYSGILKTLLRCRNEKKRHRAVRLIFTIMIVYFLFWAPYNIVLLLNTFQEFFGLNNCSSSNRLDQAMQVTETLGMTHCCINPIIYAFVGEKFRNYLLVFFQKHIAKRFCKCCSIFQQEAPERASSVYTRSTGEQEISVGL

Molecule: O=C1Nc2ccc(Cl)cc2[C@@](/C=C/C2CC2)(C(F)(F)F)N1
- Reduction (Cell line [8]): 1.28

Molecule: CC(C)Cc1cc(-c2ccc(-c3ccc(CCC(=O)O)cc3CC(C)C)cc2C(C)C)ccc1OCC(=O)O
- IC50 [9]: 35000 nM
- IC50 [10]: ~15 µg/mL (≈ 28.3 µM)

Molecule: O=C(/C=C(\O)c1ccc(Cc2ccc(F)cc2)o1)c1nc[nH]n1
- EC50 [13]: 140 nM
- CC50 [14]: 110000 nM

Molecule: COC[C@@H](c1ccc(C(F)(F)F)cc1)N1CCN(C2(C)CCN(C(=O)c3c(C)ncnc3C)CC2)C[C@@H]1C [VICRIVIROC]
- Reduction (Cell line [15]): 1

Molecule: enfuvirtide
- Reduction [16]: 2

Molecule: O=[N+]([O-])c1ccc(C2c3c(O)nc(S)nc3Oc3nc(S)nc(O)c32)cc1
- EC50 [18]: 8900 nM

More lines, main results first:

- EC90 [1]: 13 nM
- bioavailability [2]: 9.5%
- bioavailability [3]: 28.5%
- EC50 [4]: 1.1 nM
Molecule: CC(=O)N1CCC(C(=O)N(CCCN2CCC(Cc3ccc(C(N)=O)cc3)CC2)c2ccc(C)c(Cl)c2)CC1

- IC90 [5]: < 10 nM
Molecule: Cc1nnc(C(C)C)n1[C@H]1CC2CC[C@@H](C1)N2CC[C@H](NC(=O)C1CCC(F)(F)CC1)c1ccccc1 (single isomer, unassigned) [MARAVIROC]
- Activity (Cell line [6]): 1.42
- Activity (Cell line [7]): 0.42

- EC50 [11]: 0.05 µg/mL (≈ 0.179 µM)
Molecule: Cc1ccc(C)c(CSc2c(Cl)ccc[n+]2[O-])c1
- SI [12]: ~760

- EC50 [17]: 0.5 nM
Molecule: COc1ccc(S(=O)(=O)N(CC(C)C)C[C@@H](O)[C@H](Cc2ccccc2)NC(=O)O[C@H]2CO[C@H]3OCC[C@H]32)cc1
